Results from PubChem BioAssay AID330 (DTP/NCI, 2004).
Where “and” joins values, the source holds several entries; their conditions need not be identical. Equal values may be shown once. Inconclusive results and toxic doses are left out.

Test system: P388 leukemia ip, CD2F1 mice, survival T/C
Experiment: NCI In Vivo Anticancer Drug Screen. Data for tumor model P388 Leukemia (intraperitoneal) in CD2F1 (CDF1) mice
Details: endpoint: median survival time, higher = longer survival
How it was run: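 Mice carrying the transplanted tumor received test compound or vehicle. Survival was recorded in each group, and the value is the treated-group measurement divided by that of the vehicle-treated control group.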

[1] = dose: 100.0 mg/kg/injection, schedule: Q01DX009 (ip), vehicle: saline with Tween-80
[2] = dose: 200.0 mg/kg/injection, schedule: Q01DX009 (ip), vehicle: saline with Tween-80
[3] = dose: 50.0 mg/kg/injection, schedule: Q01DX005 (ip), vehicle: saline with Tween-80
[4] = dose: 100.0 mg/kg/injection, schedule: Q01DX005 (ip), vehicle: saline with Tween-80
[5] = dose: 200.0 mg/kg/injection, schedule: Q01DX005 (ip), vehicle: saline with Tween-80
[6] = dose: 25.0 mg/kg/injection, schedule: Q01DX009 (ip), vehicle: other
[7] = dose: 25.0 mg/kg/injection, schedule: Q01DX009 (ip), vehicle: saline
[8] = dose: 50.0 mg/kg/injection, schedule: Q01DX009 (ip), vehicle: saline
[9] = dose: 100.0 mg/kg/injection, schedule: Q01DX009 (ip), vehicle: other
[10] = dose: 100.0 mg/kg/injection, schedule: Q01DX001 (ip), vehicle: Klucel (hydroxypropylcellulose) (HPC)
[11] = dose: 200.0 mg/kg/injection, schedule: Q01DX001 (ip), vehicle: Klucel (hydroxypropylcellulose) (HPC)
[12] = dose: 400.0 mg/kg/injection, schedule: Q01DX001 (ip), vehicle: Klucel (hydroxypropylcellulose) (HPC)
[13] = dose: 6.25 mg/kg/injection, schedule: Q01DX009 (ip), vehicle: saline
[14] = dose: 12.5 mg/kg/injection, schedule: Q01DX009 (ip), vehicle: saline
[15] = dose: 100.0 mg/kg/injection, schedule: Q01DX009 (ip), vehicle: saline

For `CC1=CC[C@@H]2[C@@H](CC[C@@]2(C)O)C(C)(C)[C@H]1CC[C@@H]1[C@@]2(C)CC[C@@H](O)C(C)(C)O[C@@H]2CC[C@]1(C)O`, the T/C (dose: 8.0 mg/kg/injection, schedule: Q01DX005 (ip), vehicle: saline + Tween-80 + alcohol) was 103 % of control, the T/C (dose: 16.0 mg/kg/injection, schedule: Q01DX005 (ip), vehicle: saline + Tween-80 + alcohol) was 103 % of control and the T/C (dose: 32.0 mg/kg/injection, schedule: Q01DX005 (ip), vehicle: saline + Tween-80 + alcohol) was 97 % of control. The T/C (dose: 64.0 mg/kg/injection, schedule: Q01DX005 (ip), vehicle: saline + Tween-80 + alcohol) was 96 % of control.
With `CC([NH-])C[NH-].CC([NH-])C[NH-].CC([NH-])C[NH-].[Co]` (centres undefined) the T/C (dose: 12.5 mg/kg/injection, schedule: Q04DX003 (ip), vehicle: water) was 91 % of control, the T/C (dose: 25.0 mg/kg/injection, schedule: Q04DX003 (ip), vehicle: water) was 94 % of control and the T/C (dose: 50.0 mg/kg/injection, schedule: Q04DX003 (ip), vehicle: water) was 94 % of control. The T/C (dose: 100.0 mg/kg/injection, schedule: Q04DX003 (ip), vehicle: water) was 90 % of control.
`CN(C)CCCNc1ccc(O)c2c1C(=O)c1ccccc1C2=O` was tested, and the T/C (dose: 12.5 mg/kg/injection, schedule: Q01DX009 (ip), vehicle: water) was 93 % of control, the T/C (dose: 25.0 mg/kg/injection, schedule: Q01DX009 (ip), vehicle: water) was 97 % of control and the T/C (dose: 50.0 mg/kg/injection, schedule: Q01DX009 (ip), vehicle: water) was 96 % of control. The T/C (dose: 100.0 mg/kg/injection, schedule: Q01DX009 (ip), vehicle: water) was 104 % of control.
For `CC(C)C(=O)Nc1ccc(S(=O)(=O)Nc2ccc(N)cc2O)cc1`, the T/C (dose: 50.0 mg/kg/injection, schedule: Q01DX009 (ip), vehicle: saline with Tween-80) was 96 % of control, the T/C [1] was 101 % of control and the T/C [2] was 104 % of control.
`O=C(O)CNC(=O)C(Cc1c[nH]c2ccccc12)NC(=O)OCc1ccccc1` (centres undefined) was tested, and the T/C [3] was 95 % of control, the T/C [4] was 94 % of control and the T/C [5] was 91 % of control.
`COc1ccc(/C=N/NC(=O)C(=O)Nc2ccc(Cl)c([N+](=O)[O-])c2)cc1OC` was tested, and the T/C [3] was 93 % of control, the T/C [4] was 92 % of control and the T/C [5] was 103 % of control.
`C[C@]12CCC(=O)C[C@@H]1CC[C@@H]1[C@@H]2CC[C@]2(C)[C@@H](OC(=O)N(CCCl)N=O)CC[C@@H]12` was tested, and the T/C (dose: 25.0 mg/kg/injection, schedule: Q01DX005 (ip), vehicle: other) was 105 % of control, the T/C [6] was 120 % of control and the T/C [7] was 106 % of control. The T/C (dose: 31.2 mg/kg/injection, schedule: Q04DX003 (ip), vehicle: saline) was 116 % of control, the T/C (dose: 50.0 mg/kg/injection, schedule: Q01DX005 (ip), vehicle: other) was 105 % of control and the T/C [8] was 121 % of control. The T/C (dose: 62.5 mg/kg/injection, schedule: Q04DX003 (ip), vehicle: saline) was 110 % of control, the T/C (dose: 100.0 mg/kg/injection, schedule: Q01DX005 (ip), vehicle: other) was 112 % of control and the T/C [9] was 100 % of control.
With `Cc1nn(C(N)=S)c(C)c1N=Nc1ccc([N+](=O)[O-])cc1` the T/C [10] was 104 % of control, the T/C [11] was 108 % of control and the T/C [12] was 113 % of control.
For `O=C(O)Cc1cnc[nH]1`, the T/C [13] was 100 % of control, the T/C [14] was 106 % of control and the T/C [7] was 97 % of control. The T/C [8] was 99 % of control.
For `CCOc1ccc(S(=O)(=O)c2ccc(C)cc2)c2c1no[n+]2[O-]`, the T/C (dose: 3.75 mg/kg/injection, schedule: Q01DX009 (ip), vehicle: saline with Tween-80) was 101 % of control, the T/C (dose: 7.5 mg/kg/injection, schedule: Q01DX009 (ip), vehicle: saline with Tween-80) was 99 % of control and 95 % of control and the T/C (dose: 15.0 mg/kg/injection, schedule: Q01DX009 (ip), vehicle: saline with Tween-80) was 107 % of control.
For `CN(C)CCOc1ccc2c(c1)C1=NN(c3ccccc3)C(=O)CC1CO2` (centres undefined), the T/C (dose: 60.0 mg/kg/injection, schedule: Q01DX005 (ip), vehicle: saline with Tween-80) was 103 % of control and the T/C (dose: 120.0 mg/kg/injection, schedule: Q01DX005 (ip), vehicle: saline with Tween-80) was 99 % of control.
With `C=CCC(C)(C#N)C1C=CCC1` (centres undefined) the T/C (dose: 100.0 mg/kg/injection, schedule: Q01DX009 (ip), vehicle: saline sonified) was 100 % of control, the T/C (dose: 200.0 mg/kg/injection, schedule: Q01DX009 (ip), vehicle: saline sonified) was 100 % of control and the T/C (dose: 400.0 mg/kg/injection, schedule: Q01DX009 (ip), vehicle: saline sonified) was 122 % of control.
`Clc1ncnc2c1ncn2C1C=CC=CC=C1` was tested, and the T/C (dose: 50.0 mg/kg/injection, schedule: Q01DX005 (ip), vehicle: Klucel (hydroxypropylcellulose) (HPC)) was 90 % of control, the T/C (dose: 100.0 mg/kg/injection, schedule: Q01DX005 (ip), vehicle: Klucel (hydroxypropylcellulose) (HPC)) was 92 % of control and the T/C (dose: 200.0 mg/kg/injection, schedule: Q01DX005 (ip), vehicle: Klucel (hydroxypropylcellulose) (HPC)) was 91 % of control.
With `CCCCCC(C)(Cl)CCCCC` the T/C [15] was 101 % of control, the T/C (dose: 200.0 mg/kg/injection, schedule: Q01DX009 (ip), vehicle: saline) was 106 % of control and the T/C (dose: 400.0 mg/kg/injection, schedule: Q01DX009 (ip), vehicle: saline) was 106 % of control.
For `CC(C)C1OC(=O)C=C1Sc1ccccc1` (centres undefined), the T/C [3] was 100 % of control, the T/C [4] was 99 % of control and the T/C [5] was 114 % of control.
In the case of `CC(C)[C@](O)(C(=O)OC1CCN2CCC(CO)C12)[C@H](C)O` (some centres undefined), the T/C (dose: 11.5 mg/kg/injection, schedule: Q01DX009 (ip), vehicle: saline) is reported as 111 % of control, the T/C (dose: 23.0 mg/kg/injection, schedule: Q01DX009 (ip), vehicle: saline) is reported as 107 % of control and the T/C (dose: 46.0 mg/kg/injection, schedule: Q01DX009 (ip), vehicle: saline) is reported as 105 % of control. The T/C (dose: 92.0 mg/kg/injection, schedule: Q01DX009 (ip), vehicle: saline) was 98 % of control.
For `CN1CC2c3cc4c(cc3CC1c1cc3c(cc12)OCO3)OCO4` (centres undefined), the T/C (dose: 100.0 mg/kg/injection, schedule: Q01DX001 (ip), vehicle: saline with Tween-80) was 108 % of control and the T/C (dose: 200.0 mg/kg/injection, schedule: Q01DX001 (ip), vehicle: saline with Tween-80) was 108 % of control.
For `Cc1ccc(S(=O)(=O)N/N=C/c2c(Br)nc3sccn23)cc1`, the T/C [10] was 106 % of control, the T/C [11] was 108 % of control and the T/C [12] was 106 % of control.
With `Cc1ccc2c(C)cc(=O)oc2c1` the T/C (dose: 100.0 mg/kg/injection, schedule: Q04DX003 (ip), vehicle: saline) was 102 % of control, the T/C (dose: 200.0 mg/kg/injection, schedule: Q04DX003 (ip), vehicle: saline) was 105 % of control and the T/C (dose: 400.0 mg/kg/injection, schedule: Q04DX003 (ip), vehicle: saline) was 108 % of control.
In the case of `CC[NH-].CC[NH-].[Cl][Pt+2][Cl]`, the T/C (dose: 3.12 mg/kg/injection, schedule: Q01DX009 (ip), vehicle: saline) is reported as 150 % of control, the T/C (dose: 3.12 mg/kg/injection, schedule: Q01DX009 (ip), vehicle: suspension in saline) is reported as 116 % of control and the T/C [13] is reported as 162 % of control. The T/C [14] was 159 % of control and the T/C (dose: 12.5 mg/kg/injection, schedule: Q01DX009 (ip), vehicle: suspension in saline) was 97 % of control.
With `O=NN(CC(=O)OCc1ccccc1)NC(=O)OCc1ccccc1` the T/C (dose: 12.5 mg/kg/injection, schedule: Q01DX009 (ip), vehicle: other) was 96 % of control, the T/C [6] was 97 % of control and the T/C (dose: 50.0 mg/kg/injection, schedule: Q01DX009 (ip), vehicle: other) was 94 % of control. For the same molecule, the T/C [9] was 96 % of control and the T/C (dose: 200.0 mg/kg/injection, schedule: Q01DX009 (ip), vehicle: other) was 96 % of control.
For `C=C1C(=O)O[C@H]2[C@H]1[C@@H](OC(=O)C=C(C)C)CC1=C[C@@H](C[C@@]3(C)O[C@@H]23)OC1=O`, the T/C [14] was 92 % of control, the T/C [7] was 100 % of control and the T/C [8] was 99 % of control. For the same molecule, the T/C [15] was 101 % of control.
For `CCNC(=O)N1CC(=O)Nc2ccccc21`, the T/C [3] was 101 % of control and the T/C [4] was 96 % of control.
In the case of `CN(CCl)S(=O)(=O)c1ccccc1`, the T/C [1] is reported as 90 % of control, the T/C [2] is reported as 100 % of control and the T/C (dose: 400.0 mg/kg/injection, schedule: Q01DX009 (ip), vehicle: saline with Tween-80) is reported as 105 % of control.
With `CC(=O)CS(F)(F)(F)(F)F` the T/C [3] was 105 % of control.
`O=C(CCCN1CCC2(CC1)C(=O)NCN2c1ccc(F)cc1)c1ccc(F)cc1` was tested, and the T/C [3] was 103 % of control, the T/C [4] was 95 % of control and the T/C [5] was 94 % of control.
